In patent publication US20250171438A1 (Agios Pharmaceuticals, Inc., priority 2022, published 2025) one finds AC50 data, which are given here for 34 compounds.

Each structure is given as a SMILES string.

One assay deals with T1, human PAH with the R408W mutation (Homo sapiens, UniProt P00439, R408W).
T1 construct: expressed in transfected cells
T1 sequence (P00439 1-452 R408W): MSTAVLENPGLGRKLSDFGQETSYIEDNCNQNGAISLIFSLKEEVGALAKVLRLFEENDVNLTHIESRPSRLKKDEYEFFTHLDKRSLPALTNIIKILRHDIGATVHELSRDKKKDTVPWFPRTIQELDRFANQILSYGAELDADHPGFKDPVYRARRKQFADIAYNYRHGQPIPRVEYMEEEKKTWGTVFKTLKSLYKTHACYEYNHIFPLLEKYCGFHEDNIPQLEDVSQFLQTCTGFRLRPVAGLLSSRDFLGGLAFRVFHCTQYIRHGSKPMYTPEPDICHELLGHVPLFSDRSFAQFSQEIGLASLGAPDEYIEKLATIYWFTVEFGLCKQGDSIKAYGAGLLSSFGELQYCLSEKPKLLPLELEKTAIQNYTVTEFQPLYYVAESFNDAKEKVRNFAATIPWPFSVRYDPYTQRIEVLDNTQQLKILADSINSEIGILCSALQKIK
The experiment in a line: Cell Based Phenylalanine Flux Assay. The settings on record: A375 cells expressing human R408W PAH; 24 hrs compound incubation; 13C-Tyrosine by LC-MS; average where tested multiple times; read-out: AC50.
Regarding `O=C(N1CCc2[nH]cnc2[C@@H]1c1nc2c(F)cccc2s1)C(F)(F)C1(O)CCC1` [Example 1656, (R)-2,2-difluoro-1-(4-(4-fluorobenzo[d]thiazol-2-yl)-6,7-dihydro-1H-imidazo[4,5-c]pyridin-5(4H)-yl)-2-(1-hydroxycyclobutyl)ethanone], the AC50 (commonly the midpoint of the concentration-response curve, whichever way the signal moves) is 1000 to 5000 nM.
For `O=C(c1cn(-c2ccccn2)nc1Cl)N1CCc2[nH]cnc2[C@H]1c1nc2c(F)cccc2s1` [Example 1769], the AC50 is 500 to 1000 nM.
Still for that read-out and setting: for `O=C(c1nnc(-c2ccc(F)cn2)o1)N1CCc2[nH]cnc2[C@@H]1c1nc2ccccc2s1` [Example 1366, (R)-(4-(benzo[d]thiazol-2-yl)-6,7-dihydro-1H-imidazo[4,5-c]pyridin-5(4H)-yl)(5-(5-fluoropyridin-2-yl)-1,3,4-oxadiazol-2-yl)methanone] the value was 1000 to 5000 nM; for `Cn1ncc(Cl)c1C(=O)N1CCc2[nH]cnc2[C@@H]1c1nc2c(F)cccc2s1` [Example 1734, (R)-(4-chloro-1-methyl-1H-pyrazol-5-yl)(4-(4-fluorobenzo[d]thiazol-2-yl)-6,7-dihydro-1H-imidazo[4,5-c]pyridin-5(4H)-yl)methanone], 500 to 1000 nM; for `Cn1cc(-c2nnc(C(=O)N3CCc4[nH]cnc4[C@@H]3c3nc4ccccc4s3)o2)c(C(F)(F)F)n1` [Example 1884, (R)-(4-(benzo[d]thiazol-2-yl)-6,7-dihydro-1H-imidazo[4,5-c]pyridin-5(4H)-yl)(5-(1-methyl-3-(trifluoromethyl)-1H-pyrazol-4-yl)-1,3,4-oxadiazol-2-yl)methanone], 1000 to 5000 nM.
On the same count and under the same terms, under `COCc1ncc(C(=O)N2CCc3[nH]cnc3[C@H]2c2nc3ccccc3s2)s1` [Example 1185] stands 500 to 1000 nM.
Same read-out and setting: for `O=C(CC1CC1)N1CCc2[nH]cnc2[C@H]1c1nc2cc(F)ccc2s1` [Example 1135, (S)-2-cyclopropyl-1-(4-(5-fluorobenzo[d]thiazol-2-yl)-6,7-dihydro-1H-imidazo[4,5-c]pyridin-5(4H)-yl)ethanone] the value was 500 to 1000 nM.
As to `CC(C)(O)c1nc(C(F)(F)F)c(C(=O)N2CC3(CC3)c3[nH]cnc3[C@@H]2c2nc3ccccc3s2)o1` [Example 1680, (R)-(4′-(benzo[d]thiazol-2-yl)spiro[cyclopropane-1,7′-imidazo[4,5-c]pyridin]-5′(1′H,4′H,6′H)-yl)(2-(2-hydroxypropan-2-yl)-4-(trifluoromethyl)oxazol-5-yl)methanone], the concentration at half-maximal activity (AC50) is 1000 to 5000 nM.
Consider `O=C(c1oc(C2(O)CCC2)nc1C(F)(F)F)N1CCc2[nH]cnc2[C@H]1c1nc2c(F)cccc2s1` [Example 1637, (S)-(4-(4-fluorobenzo[d]thiazol-2-yl)-6,7-dihydro-1H-imidazo[4,5-c]pyridin-5(4H)-yl)(2-(1-hydroxycyclobutyl)-4-(trifluoromethyl)oxazol-5-yl)methanone], for which the AC50 is under 500 nM.
Consider `O=C(CCc1nccs1)N1CCc2[nH]cnc2[C@@H]1c1nc(-c2ccccc2)cs1` [Example 2144, (R)-1-(4-(4-phenylthiazol-2-yl)-6,7-dihydro-1H-imidazo[4,5-c]pyridin-5(4H)-yl)-3-(thiazol-2-yl)propan-1-one], for which the AC50 was over 5000 nM.
As to `O=C(c1cnc(-c2c(F)cccc2F)s1)N1CCc2[nH]cnc2[C@H]1c1nc2ccccc2s1` [Example 1509], the concentration at half-maximal activity (AC50) was under 500 nM.
Still for that read-out and setting: under `O=C(c1nnc(C2CC2)o1)N1CCc2[nH]cnc2[C@H]1c1nc2ccccc2s1` [Example 1363] stands under 500 nM.
As to `O=C(c1cnn2ccc(Cl)cc12)N1CCc2[nH]cnc2[C@H]1c1nc2c(F)cccc2s1` [Example 1195], the AC50 was under 500 nM.
`Brc1ccc2nc([C@@H]3c4nc[nH]c4CCN3Cc3nccs3)[nH]c2c1` [Example 971, (S)-2-((4-(6-bromo-1H-benzo[d]imidazol-2-yl)-6,7-dihydro-1H-imidazo[4,5-c]pyridin-5(4H)-yl)methyl)thiazole]: the AC50 was under 500 nM.
Same read-out and setting: under `O=C(c1ccno1)N1CCc2[nH]cnc2[C@H]1c1nc2cc(F)ccc2s1` [Example 2153, (S)-(4-(5-fluorobenzo [d]thiazol-2-yl)-6,7-dihydro-1H-imidazo[4,5-c]pyridin-5(4H)-yl) (iso xazol-5-yl)methanone] stands 1000 to 5000 nM; under `Cn1cc(C(=O)N2CCc3[nH]cnc3[C@H]2c2nc3ccccc3s2)c(C(F)F)n1` [Example 1821], under 500 nM.
Turning to `O=C(c1nnc(-c2ccccn2)o1)N1CCc2[nH]cnc2[C@H]1c1nc2c(F)cccc2s1` [Example 1602, (S)-(4-(4-fluorobenzo[d]thiazol-2-yl)-6,7-dihydro-1H-imidazo[4,5-c]pyridin-5(4H)-yl)(5-(pyridin-2-yl)-1,3,4-oxadiazol-2-yl)methanone], the AC50 was under 500 nM.
The same measure, in the same setting: under `O=C(c1cnc(-c2ccccn2)o1)N1CC2(CC2)c2[nH]cnc2[C@@H]1c1nc2ccccc2s1` [Example 1654, (R)-(4′-(benzo[d]thiazol-2-yl)spiro[cyclopropane-1,7′-imidazo[4,5-c]pyridin]-5′(1′H,4′H,6′H)-yl)(2-(pyridin-2-yl)oxazol-5-yl)methanone] stands 1000 to 5000 nM; under `O=C(c1ocnc1C(F)(F)F)N1CC2(CC2)c2[nH]cnc2[C@@H]1c1nc2ccccc2s1` [Example 1667, (R)-(4′-(benzo[d]thiazol-2-yl)spiro[cyclopropane-1,7′-imidazo[4,5-c]pyridin]-5′(1′H,4′H,6′H)-yl)(4-(trifluoromethyl)oxazol-5-yl)methanone], 1000 to 5000 nM.
Same read-out and setting: under `O=C(c1cnc(C2CC2)o1)N1CCc2[nH]cnc2[C@H]1c1nc2c(F)cccc2s1` [Example 1329] stands under 500 nM; under `Cc1nc(-c2ccccn2)oc1C(=O)N1CCc2[nH]cnc2[C@@H]1c1nc2ccccc2s1` [Example 1372, (R)-(4-(benzo[d]thiazol-2-yl)-6,7-dihydro-1H-imidazo[4,5-c]pyridin-5(4H)-yl)(4-methyl-2-(pyridin-2-yl)oxazol-5-yl)methanone], over 5000 nM.

The same assay, now with this note: A375 cells expressing human R408W PAH; 24 hrs with compound; 13C-Tyrosine by LC-MS; average where tested multiple times; read-out: AC50.
As to `O=C(c1cnn2cc(Cl)ccc12)N1CCc2[nH]cnc2C1c1nc2ccccc2[nH]1` (stereo not shown), the AC50 was in the range of 1000 to 5000 nM.
The same measure, in the same setting: for `Cc1nc(C(=O)N2CCc3[nH]cnc3C2c2nc3c(F)cccc3s2)n(C)n1` (stereo not shown) the value was 1000 to 5000 nM.
Turning to `CC1CN(C(=O)c2cnn3cc(CN(C)C)ccc23)C(c2nc3ccccc3s2)c2nc[nH]c21` (stereo not shown), the AC50 was over 5000 nM.
In the case of `O=C(c1ccn[nH]1)N1CCc2[nH]cnc2C1c1nc2ccccc2s1` (stereo not shown), the half-maximal activity concentration (AC50) is 1000 to 5000 nM.
The same measure, in the same setting: for `O=C(c1cnn2ccc(F)cc12)N1CCc2[nH]cnc2C1c1nc2ccc(Br)cc2[nH]1` (stereo not shown) the value was 1000 to 5000 nM; for `O=C(c1ncc(Cl)s1)N1CCc2[nH]cnc2C1c1nc2ccc(F)cc2s1` (stereo not shown), 1000 to 5000 nM; for `O=C(Cc1nccs1)N1CCc2[nH]cnc2C1c1nc2cc(F)ccc2s1` (stereo not shown), 1000 to 5000 nM.
Still for that read-out and setting: for `O=C(Cc1cncs1)N1CCc2[nH]cnc2C1c1nc2ccccc2s1` (stereo not shown) the value was over 5000 nM.
The same measure, in the same setting: under `Cc1nnc(C(=O)N2CCc3[nH]cnc3C2c2nc3cc(Br)ccc3[nH]2)s1` (stereo not shown) stands over 5000 nM; under `Cc1ncc(CC(=O)N2CCc3[nH]cnc3C2c2nc3ccccc3s2)o1` (stereo not shown), 1000 to 5000 nM.
Regarding `O=C(c1ccno1)N1CCc2[nH]cnc2C1c1nc2ccc(F)cc2s1` (stereo not shown), the AC50 is over 5000 nM.
Same read-out and setting: for `O=C(c1cnn2cc(Br)ccc12)N1CCc2[nH]cnc2C1c1nc2ccc(F)cc2s1` (stereo not shown) the value was over 5000 nM; for `O=C(c1cnn2ccc(Cl)cc12)N1CCc2[nH]cnc2C1c1nc2ccc(Cl)cc2[nH]1` (stereo not shown), 1000 to 5000 nM.
